Patent publication US6476027B1, “N-hydroxy 4-sulfonyl butanamide compounds” (Monsanto Company, priority 1997, dated 2002)
Structures can show the parent of a compound that is named as a salt.

What was measured:
recombinant human MMP-13 = molecular target: T1, recombinant human MMP-13 (Homo sapiens, UniProt P45452); assay: In vitro metalloprotease inhibition, fluorogenic MCA peptide substrate; format: biochemical; conditions: room temperature, pH 7.5, 4 μM substrate, APMA-activated enzyme
T1 construct: made in house
Description: (§1) Briefly, 4-aminophenylmercuric acetate (APMA) or trypsin activated MMPs were incubated with various concentrations of the inhibitor compound at room temperature for 5 minutes.
(§2) More specifically, recombinant human MMP-13 and MMP-1 enzymes were prepared in laboratories of the assignee. MMP-13 was expressed in baculovirus as a proenzyme, and purified first over a heparin agarose column and then over a chelating zinc chloride column. The proenzyme was activated by APMA for use in the assay. MMP-1 expressed in transfected HT-1080 cells was provided by Dr. Howard Welgus of Washington University, St. Louis, Mo. The enzyme was also activated using APMA and was then purified over a hydroxamic acid column.
(§3) MCA-ProLeuGlyLeuDpaAlaArgNH^2, wherein MCA is methoxycoumarin and Dpa is 3-(2,4-dinitrophenyl)-L-2,3-diaminopropionyl alanine.
(§4) The buffer used for assays contained 100 mM Tris-HCl, 100 mM NaCl, 10 mM CaCl2 and 0.05 percent polyethyleneglycol (23) lauryl ether at a pH value of 7.5.

[1] = system: advanced, rapidly progressive, treatment-refractory solid tumor cancers; conditions: cited from earlier work
recombinant human MMP-1 = molecular target: T2, recombinant human MMP-1 (Homo sapiens, UniProt P03956); assay: In vitro metalloprotease inhibition, fluorogenic MCA peptide substrate; format: biochemical; conditions: room temperature, pH 7.5, 4 μM substrate, APMA-activated enzyme
T2 construct: made in house; host or cells: transfected HT-1080 cells (provided by Dr. Howard Welgus, Washington University)
T2 sequence (P03956 100-469): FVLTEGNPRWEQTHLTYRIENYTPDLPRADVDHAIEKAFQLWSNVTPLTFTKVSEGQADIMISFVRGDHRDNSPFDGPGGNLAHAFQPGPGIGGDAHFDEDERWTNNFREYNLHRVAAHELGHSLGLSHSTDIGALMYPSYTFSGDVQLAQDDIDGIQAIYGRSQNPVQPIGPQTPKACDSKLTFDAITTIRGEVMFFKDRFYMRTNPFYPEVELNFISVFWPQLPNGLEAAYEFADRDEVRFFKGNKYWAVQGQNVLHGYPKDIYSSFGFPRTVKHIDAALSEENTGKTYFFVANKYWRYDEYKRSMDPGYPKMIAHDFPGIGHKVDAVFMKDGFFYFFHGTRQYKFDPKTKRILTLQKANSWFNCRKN
Description: as §1, §2, §3, §4

MMP-2 = molecular target: T3, MMP-2 (Homo sapiens, UniProt P08253); assay: as above; format: biochemical; conditions: room temperature, pH 7.5, 4 μM substrate
T3 sequence (P08253 110-660): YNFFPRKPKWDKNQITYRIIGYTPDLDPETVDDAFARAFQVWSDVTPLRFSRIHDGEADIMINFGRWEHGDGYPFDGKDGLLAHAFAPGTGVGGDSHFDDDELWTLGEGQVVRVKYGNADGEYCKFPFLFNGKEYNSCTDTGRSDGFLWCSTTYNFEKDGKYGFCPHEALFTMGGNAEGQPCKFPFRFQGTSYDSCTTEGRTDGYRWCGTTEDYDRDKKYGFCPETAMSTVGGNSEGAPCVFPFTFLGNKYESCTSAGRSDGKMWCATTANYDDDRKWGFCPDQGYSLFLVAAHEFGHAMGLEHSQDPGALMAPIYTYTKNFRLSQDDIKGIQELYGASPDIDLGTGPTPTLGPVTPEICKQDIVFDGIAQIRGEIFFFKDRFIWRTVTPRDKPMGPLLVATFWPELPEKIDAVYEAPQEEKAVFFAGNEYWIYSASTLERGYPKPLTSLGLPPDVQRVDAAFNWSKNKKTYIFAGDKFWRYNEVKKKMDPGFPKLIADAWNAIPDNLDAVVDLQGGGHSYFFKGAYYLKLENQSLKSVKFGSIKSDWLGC
Description: as §1, §3, §4

SMILES | IC50 (recombinant human MMP-13) [µM] | IC50 (recombinant human MMP-1) [µM] | IC50 (MMP-2) [µM] | effect on cancer-specific antigens used as surrogate markers for biological activity ([1]; Phase I/II, colorectal, pancreatic, ovarian, prostate cancers) | most common drug-related toxicity ([1]; clinical trials, patients with advanced solid tumor cancers)
COc1ccc(S(=O)(=O)CCCC(=O)NO)cc1 [Example 6] | 2 |  |  |  | 
CNC(=O)[C@@H](NC(=O)[C@H](CC(C)C)[C@H](O)C(=O)NO)C(C)(C)C [marimastat, Marimastat] |  |  |  | dose-related reduction in the rise of cancer-specific antigens | musculoskeletal pain and stiffness
CC(C)(CS(=O)(=O)c1ccc(Oc2ccccc2)cc1)[C@H](NC(=O)CN1CCCC1)C(=O)NO [Example 14] | 0.0024 | > 10 | 0.0018 |  | 
CC(C)(C)OC(=O)N1CCC(CCS(=O)(=O)c2ccc(Oc3ccccc3)cc2)(C(=O)NO)CC1 [Example 16] | 0.4 | > 10 | 0.169 |  | 
CC(C)(CS(=O)(=O)c1ccc(Oc2ccccc2)cc1)[C@H](OCc1cccnc1)C(=O)NO [Example 8a, (S)-N-Hydroxy-3,3-dimethyl-4-[(4-phenoxyphenyl)sulfonyl]-2-(3-pyridinylmethoxy)butanamide] | 0.005 | > 10 | 0.0022 |  | 
CC(C)(CS(=O)(=O)c1ccc(Oc2ccccc2)cc1)[C@H](OCc1ccncc1)C(=O)NO [Example 9a, (S)-N-Hydroxy-3,3-dimethyl-4-[(4-phenoxyphenyl)sulfonyl]-2-(4-pyridinylmethoxy)butanamide] | 0.003 | 7 | 0.0013 |  | 
CC(C)(CS(=O)(=O)c1ccc(Oc2ccccc2)cc1)[C@H](OCc1ccccn1)C(=O)NO [Example 10] | 0.0024 |  | 0.0015 |  | 
CC(C)(C)OC(=O)N[C@H](C(=O)NO)C(C)(C)CS(=O)(=O)c1ccc(Oc2ccccc2)cc1 [Example 11] | < 0.0001 | 0.05 | < 0.0001 |  | 
CC(C)(CS(=O)(=O)c1ccc(Oc2ccccc2)cc1)[C@H](NC(=O)CN1CCOCC1)C(=O)NO [Example 13a, (S)-N-[1-[(Hydroxyamino)carbonyl]-2,2-dimethyl-3-[(4-phenoxyphenyl)sulfonyl]-propyl]-4-morpholineacetamide Monohydrochloride] | 0.0018 | 1.8 | 0.0006 |  | 
CC(C)(CS(=O)(=O)c1ccc(Oc2ccccc2)cc1)[C@H](NC(=O)CN1CCOCC1)C(=O)NO [Example 13] | 0.0014 | 0.77 | 0.0003 |  | 

Continued, in another order:

IC50 (recombinant human MMP-13) [µM] | IC50 (recombinant human MMP-1) [µM] | IC50 (MMP-2) [µM] | SMILES | effect on cancer-specific antigens used as surrogate markers for biological activity ([1]; Phase I/II, colorectal, pancreatic, ovarian, prostate cancers) | most common drug-related toxicity ([1]; clinical trials, patients with advanced solid tumor cancers)
0.0139 | > 10 | 0.0077 | O=C(NO)C(CCS(=O)(=O)c1ccc(Oc2ccccc2)cc1)N1CCCCC1 (centres unmarked) [Example 15] |  | 
0.0018 | > 10 | 0.0032 | CC(CCS(=O)(=O)c1ccc(Oc2ccccc2)cc1)C(=O)NO (centres unmarked) [Example 5] |  | 
0.0544 | > 10 | 0.0158 | O=C(NO)C(O)CCS(=O)(=O)c1ccc(Oc2ccccc2)cc1 (centres unmarked) [Example 4] |  | 
0.0019 | 6.3 | 0.0003 | CC(C)(CS(=O)(=O)c1ccc(Oc2ccccc2)cc1)[C@H](O)C(=O)NO [Example 1] |  | 
0.169 | > 10 | 0.07 | O=C(NO)C1(CCS(=O)(=O)c2ccc(Oc3ccccc3)cc2)CCNCC1 [Example 17] |  | 
0.0016 | 3.3 | 0.0003 | CC(C)(CS(=O)(=O)c1ccc(Oc2ccccc2)cc1)[C@H](N)C(=O)NO [Example 12] |  | 
2.6 | > 10 | 1 | CC(C)(CCS(=O)(=O)c1ccc(Oc2ccccc2)cc1)C(=O)NO [Example 3] |  | 
0.0088 | > 10 | 0.002 | CC(C)(CS(=O)(=O)c1ccc(Oc2ccccc2)cc1)[C@@H](O)C(=O)NO [Example 2] |  | 
0.4 | > 10 | 0.12 | Cc1ccc(Oc2ccc(S(=O)(=O)CCC(O)C(=O)NO)cc2)cc1C (racemic) [Example 7] |  | 
